Measured values from patent US20200087625A1, “METHODS FOR ISOLATING, EXPANDING AND ADMINISTERING CANCER SPECIFIC CD8+ T CELLS” (priority 2017, published 2020).

Assays:
[1] = Serum cytokine analysis (Luminex) after systemic administration; type: in vivo, BALB/c mice; conditions: mouse, in vivo
Method: FIG. 36. […] BALB/c mice (n=5) were i.p. administered IV270 (200 μg=185 nmol/injection) or […] (58 μg=185 nmol/injection) and sera were collected 2, 4, 6, and 24 hours following the administration. The levels of TNFα, IL-12, and IP-IO were measured by Luminex assay. *P<0.05, **P<0.01 by two way ANOVA using a Bonferroni post hoc test comparing treatment groups.
The sera were collected from mice receiving […] of 1V136, 1V270 or vehicle 2, 4, 6, and 24 hours after i.p. administration (15). Cytokine levels in sera were determined by Luminex bead assays (MILLIPLEX™ MAP kit, Millip ore, Billerica, Mass.).

[2] = system: metastatic lung tumors; conditions: intratracheal administration; cited from earlier work
[3] = system: dermatological tumors; conditions: cited from earlier work

## COCCOc1nc(N)c2[nH]c(=O)n(Cc3ccccc3)c2n1 [1V136, reference compound]
[1]
  systemic proinflammatory cytokines: high levels of systemic proinflammatory cytokines

## CCCCNc1nc(N)c2[nH]c(=O)n(Cc3ccc(C)nc3)c2n1 [SM276001]
[2]
  metastatic lung tumors: suppress metastatic lung tumors

## CC(C)Cn1cnc2c(N)nc3ccccc3c21 [imiquimod]
[3]; patients with basal cell carcinoma and actinic keratosis, topical
  clinical efficacy: favorable clinical efficacy
[3]; systemic administration
  toxicity on systemic administration: immunotoxicity induced by systemic administration
